Data taken from US10265310B2, “6-membered cyclic amines or lactames substituted with urea and phenyl” (GRÜNENTHAL GMBH, priority 2016, dated 2019).

Legend:
FPR2 = FPR2 (Homo sapiens (Human), UniProt P25090); assay: Agonistic activity (calcium FLIPR) in hFPR2-Aq-CHO cells; type: cell-based; details: FLIPR Calcium 5 dye fluorescence, agonistic response
Procedure, shortened: (§1)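 CHO cells expressing hFPR1-Gα15 or hFPR2-Aq were plated 18 hours, then loaded with Calcium 5 dye (pH 7.4, probenecid) for 30 minutes at 37° C. Compounds (final 10 μM to 100 pM, 11 half-log points) were added on FLIPR, with fluorescence followed for 5 minutes. EC50 came from the rise over basal relative to no-compound wells.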

FPR1 = FPR1 (Homo sapiens (Human), UniProt P21462); assay: Agonistic activity (calcium FLIPR) in hFPR1-Gα15-CHO cells; type: cell-based; details: FLIPR Calcium 5 dye fluorescence, agonistic response
FPR1, sequence (P21462 whole entry): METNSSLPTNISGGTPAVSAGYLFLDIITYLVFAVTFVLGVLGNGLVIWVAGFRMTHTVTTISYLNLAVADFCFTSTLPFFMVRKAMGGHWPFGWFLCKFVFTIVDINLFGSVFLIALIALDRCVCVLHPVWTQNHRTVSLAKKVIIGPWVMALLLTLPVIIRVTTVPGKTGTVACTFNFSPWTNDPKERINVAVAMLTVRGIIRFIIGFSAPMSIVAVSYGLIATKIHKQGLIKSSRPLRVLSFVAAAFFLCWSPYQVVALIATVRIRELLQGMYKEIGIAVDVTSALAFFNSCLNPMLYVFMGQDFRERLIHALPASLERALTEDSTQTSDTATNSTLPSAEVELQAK
Procedure, shortened: as §1

FPR2, sequence (P25090 whole entry): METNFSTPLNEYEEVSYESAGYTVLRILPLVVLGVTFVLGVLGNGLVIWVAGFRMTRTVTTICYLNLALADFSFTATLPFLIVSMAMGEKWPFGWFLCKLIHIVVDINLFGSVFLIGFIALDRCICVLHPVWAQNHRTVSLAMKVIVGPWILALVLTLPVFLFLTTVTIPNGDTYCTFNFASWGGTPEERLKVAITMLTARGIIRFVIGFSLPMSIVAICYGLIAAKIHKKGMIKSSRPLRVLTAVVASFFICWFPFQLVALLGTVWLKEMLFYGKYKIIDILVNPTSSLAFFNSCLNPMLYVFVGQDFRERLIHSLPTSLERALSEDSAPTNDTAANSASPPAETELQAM

For O=C(Nc1ccc(Cl)cc1)NC1CN(C(=O)C2CC2)CCC1c1ccccc1 (single isomer, unassigned; ent1) [Example 83, trans-ent1-1-(4-chlorophenyl)-3-(1-(cyclopropanecarbonyl)-4-phenylpiperidin-3-yl)urea], the EC50 (FPR2) was 1 to 1000 nM and the EC50 (FPR1) was 1 to 1000 nM.

COc1ccc(C2CCN(C(=O)C3CC3)CC2NC(=O)Nc2ccc(Cl)cc2)c(F)c1 (single isomer, unassigned; ent1) [Example 86, trans-ent1-1-(4-chlorophenyl)-3-(1-(cyclopropanecarbonyl)-4-(2-fluoro-4-methoxyphenyl)piperidin-3-yl)urea] was tested, and the EC50 (FPR2) was less than 1 nM and the EC50 (FPR1) was less than 1 nM.

In the case of O=C1CC(c2ccc(Cl)cc2)C(NC(=O)Nc2ccc(Cl)cc2)CN1 (single isomer, unassigned; ent1) [Example 91, trans-ent1-1-(4-chlorophenyl)-3-(4-(4-chlorophenyl)-6-oxopiperidin-3-yl)urea], the EC50 (FPR2) is reported as 1 to 1000 nM and the EC50 (FPR1) is reported as 1 to 1000 nM.

In the case of COc1cc(F)c(C2CCNCC2NC(=O)Nc2ccc(Cl)cc2)c(F)c1 (single isomer, unassigned; ent2) [Example 37, trans-ent2-1-(4-chlorophenyl)-3-(4-(2,6-difluoro-4-methoxyphenyl)piperidin-3-yl)urea], the EC50 (FPR2) is reported as 1 to 1000 nM and the EC50 (FPR1) is reported as 1 to 1000 nM.

In the case of COc1cc(F)c(C2CCN(C(=O)C3CC3)CC2NC(=O)Nc2ccc(Cl)cc2)c(F)c1 (single isomer, unassigned; ent2) [Example 40, trans-ent2-1-(4-chlorophenyl)-3-(1-(cyclopropanecarbonyl)-4-(2,6-difluoro-4-methoxyphenyl)piperidin-3-yl)urea], the EC50 (FPR2) is reported as 1 to 1000 nM and the EC50 (FPR1) is reported as 1 to 1000 nM.

With COc1ccc(C2CC(=O)NCC2NC(=O)Nc2ccc(Cl)cc2)c(F)c1 (single isomer, unassigned; ent2) [Example 43, trans-ent2-1-(4-chlorophenyl)-3-(4-(2-fluoro-4-methoxyphenyl)-6-oxopiperidin-3-yl)urea] the EC50 (FPR2) was 1 to 1000 nM and the EC50 (FPR1) was 1 to 1000 nM.

With COc1ccc(C2CCNCC2NC(=O)Nc2ccc(Cl)cc2)c(F)c1 (single isomer, unassigned; ent2) [Example 46, ent2-1-(4-chlorophenyl)-3-(4-(2-fluoro-4-methoxyphenyl)piperidin-3-yl)urea] the EC50 (FPR2) was 1 to 1000 nM and the EC50 (FPR1) was 1 to 1000 nM.

Work on COc1cc(F)c(C2CC(=O)NCC2NC(=O)Nc2ccncc2)c(F)c1 (single isomer, unassigned; ent2) [Example 48, ent2-1-(4-(2,6-difluoro-4-methoxyphenyl)-6-oxopiperidin-3-yl)-3-(pyridin-4-yl)urea] yielded an EC50 (FPR2) of 1 to 1000 nM and an EC50 (FPR1) of 1 to 1000 nM.

COc1cc(F)c(C2CC(=O)NCC2NC(=O)Nc2ccc(Cl)cc2)c(F)c1 (single isomer, unassigned; ent2) [Example 50, trans-ent2-1-(4-chlorophenyl)-3-(4-(2,6-difluoro-4-methoxyphenyl)-6-oxopiperidin-3-yl)urea] gave an EC50 (FPR2) of less than 1 nM and an EC50 (FPR1) of 1 to 1000 nM.

COCCN1CC(NC(=O)Nc2ccc(Cl)cc2)C(c2ccc(OC)cc2F)CC1=O (single isomer, unassigned; ent2) [Example 60, trans-ent2-1-(4-Chlorophenyl)-3-[4-(2-fluoro-4-methoxy-phenyl)-1-(2-methoxy-ethyl)-6-oxo-piperidin-3-yl]-urea] showed an EC50 (FPR2) of 1 to 1000 nM and an EC50 (FPR1) of 1 to 1000 nM.

COc1ccc(C2CC(=O)N(CC(F)F)CC2NC(=O)Nc2ccc(Cl)cc2)c(F)c1 (single isomer, unassigned; ent2) [Example 62, trans-ent2-1-(4-Chlorophenyl)-3-[1-(2,2-difluoro-ethyl)-4-(2-fluoro-4-methoxy-phenyl)-6-oxo-piperidin-3-yl]-urea] gave an EC50 (FPR2) of 1 to 1000 nM and an EC50 (FPR1) of 1 to 1000 nM.

For COCCN1CC(NC(=O)Nc2ccc(Cl)cc2)C(c2ccc(F)cc2F)CC1=O (single isomer, unassigned; ent2) [Example 64, trans-ent2-1-(4-Chlorophenyl)-3-[4-(2,4-difluoro-phenyl)-1-(2-methoxy-ethyl)-6-oxo-piperidin-3-yl]-urea], the EC50 (FPR2) was 1 to 1000 nM and the EC50 (FPR1) was 1 to 1000 nM.

Work on O=C(Nc1ccc(Cl)cc1)NC1CN(CC(F)F)C(=O)CC1c1ccc(F)cc1F (single isomer, unassigned; ent2) [Example 66, trans-ent2-1-(4-Chlorophenyl)-3-[1-(2,2-difluoro-ethyl)-4-(2,4-difluoro-phenyl)-6-oxo-piperidin-3-yl]-urea] yielded an EC50 (FPR2) of 1 to 1000 nM and an EC50 (FPR1) of 1 to 1000 nM.

In the case of O=C1CC(c2ccc(F)cc2F)C(NC(=O)Nc2ccc(Cl)cc2)CN1 (single isomer, unassigned; ent2) [Example 68, trans-ent2-1-(4-Chlorophenyl)-3-[4-(2,4-difluoro-phenyl)-6-oxo-piperidin-3-yl]-urea], the EC50 (FPR2) is reported as 1 to 1000 nM and the EC50 (FPR1) is reported as 1 to 1000 nM.

COc1ccc(C2CC(=O)NCC2NC(=O)Nc2ccc(Cl)cc2)cc1 (single isomer, unassigned; ent2) [Example 77, trans-ent2-1-(4-chlorophenyl)-3-(4-(4-methoxyphenyl)-6-oxopiperidin-3-yl)urea] gave an EC50 (FPR2) of 1 to 1000 nM and an EC50 (FPR1) of 1 to 1000 nM.

Work on O=C(Nc1ccc(Cl)cc1)NC1CNCCC1c1ccccc1 (single isomer, unassigned; ent2) [Example 81, trans-ent2-1-(4-chlorophenyl)-3-(4-phenylpiperidin-3-yl)urea] yielded an EC50 (FPR2) of 1 to 1000 nM and an EC50 (FPR1) of 1 to 1000 nM.

Work on O=C(Nc1ccc(Cl)cc1)NC1CN(C(=O)C2CC2)CCC1c1ccccc1 (single isomer, unassigned; ent2) [Example 84, trans-ent2-1-(4-chlorophenyl)-3-(1-(cyclopropanecarbonyl)-4-phenylpiperidin-3-yl)urea] yielded an EC50 (FPR2) of 1 to 1000 nM and an EC50 (FPR1) of 1 to 1000 nM.

For COc1ccc([C@@H]2CC(=O)N(C)C[C@H]2NC(=O)Nc2ccc(Cl)cc2)cc1 (stereo in doubt) [Example 7, rac-trans-1-(4-chlorophenyl)-3-(4-(4-methoxyphenyl)-1-methyl-6-oxopiperidin-3-yl)urea], the EC50 (FPR2) was less than 1 nM and the EC50 (FPR1) was less than 1 nM.

In the case of COc1ccc([C@H]2CC(=O)N(C)C[C@@H]2NC(=O)Nc2ccc(Cl)cc2)cc1 (stereo in doubt) [Example 10, trans-ent1-(4-chlorophenyl)-3-(4-(4-methoxyphenyl)-1-methyl-6-oxopiperidin-3-yl)urea], the EC50 (FPR2) is reported as less than 1 nM and the EC50 (FPR1) is reported as less than 1 nM.

In the case of COc1ccc([C@@H]2CC(=O)N(C)C[C@H]2NC(=O)Nc2ccc(Cl)cc2)cc1 (stereo in doubt) [Example 11, trans-ent2-(4-chlorophenyl)-3-(4-(4-methoxyphenyl)-1-methyl-6-oxopiperidin-3-yl)urea], the EC50 (FPR2) is reported as 1 to 1000 nM and the EC50 (FPR1) is reported as 1 to 1000 nM.

For “ent1-1-(4-chlorophenyl)-3-(4-(2-fluoro-4-methoxyphenyl)piperidin-3-yl)urea [Example 45]”, the EC50 (FPR2) was less than 1 nM and the EC50 (FPR1) was 1 to 1000 nM.
